In article PMC7665192, “A natriuretic peptide from Arabidopsis thaliana (AtPNP-A) can modulate catalase 2 activity” (Scientific Reports, 2020):
Positions of bridges follow the written chain, without caps; N, C: chain ends. Residues, ends and D or L forms follow the SMILES beside them. *: point of attachment. Biotin = O=C1N[C@H]2[C@H](CS[C@H]2CCCCC(=O)*)N1

What was measured:
[1] = system: CAT2; test: Zymogram of CAT isoforms from treated seedlings; format: in vivo, Arabidopsis thaliana; conditions: 1 nM peptide, sprayed 20 min before harvesting; mean ± SD, n = 3, Student's t-test P < 0.05
Method: Enzymatic activity of CAT isozymes and total CAT activities of protein extracted from WT and atpnp-a or cat2-2 mutant lines, when indicated sprayed with 1 nM pAtPNP-A or pScr 20 min before harvesting, were determined zymographically and spectrophotometrically, as described in[56]. Relative quantification of intensity of bands corresponding to different CAT isoforms was performed with ImageJ version 1.48 (https://imagej.nih.gov/ij/). Enzymatic activity of the rCAT2 in the presence of absence of 100 nM rAtPNP-A, pAtPNP-A or pScr were determined with the use of Amplex Red catalase assay kit (Invitrogen) according to the manufacturer’s instructions.
Figure 3 AtPNP-A directly interacts with CAT2 to modulate its enzymatic activity in vitro. (a) Zymogram depicting changes in the enzymatic activity of CAT isoforms extracted from wild type (WT) or cat2-2 knockout mutant seedlings in response to 1 nM pAtPNP-A or pScr. Densitometric semi-quantification of bands corresponding to CAT2, normalized to the loading control (dark-coloured band on zymogram) for WT samples treated with 1 nM pAtPNP-A or pScr (mean ± SD, Student’s t-test, n = 3, P < 0.05). […] (b) Total CAT activity in protein extracted from WT seedlings assayed with Amplex Red catalase assay kit in the presence of 1 nM pAtPNP-A, rAtPNP-A, or pScr. […] (c) Enzymatic activity of rCAT2 in the presence of 100 nM pAtPNP-A, rAtPNP-A, or pScr.

[2] = system: rCAT2; test: SPR of CAT2 and AtPNP-A recombinant proteins, CM5 chip, both configurations; format: binding, Arabidopsis thaliana; conditions: amine coupling, 20 °C
Method: N-terminally 6xHis-tagged AtPNP-A and CAT2 proteins were expressed in BL21 (DE3) One Shot E. coli cells (Life Technologies), purified by affinity chromatography with Ni–NTA beads (Qiagen) and HisTrap HP column (GE Healthcare Lifesciences) as described in[21]. The purity of preparations was verified on 12.5% SDS-PAGE, stained with Coomassie Brilliant Blue (Bio-Rad). Protein identities were confirmed in MS analysis, and protein concentration was determined according to the method of Bradford using BSA as a standard.
SPR experiments were performed at 20 °C on Biacore T100 instrument operated using Biacore T100 control software (version 2.0.2, GE Healthcare Lifesciences) using Series S CM5 or NTA sensor chips as described in[21]. Kinetic analyses were performed at the flow of 100 μL min^−1 with pAtPNP-A (at 3.78 μM and consecutive twofold dilutions; 11 injections included) employed as a ligand and bovine liver CAT (C-40; Sigma) used as an analyte and immobilized on the active surface of the Series S CM5 sensor chip with amine coupling kit, while the surface regeneration was done with solution of glycine, pH 2.0, and the final sensorgram was generated with Scrubber (BioLogic Software Pty Ltd).
Supplementary Figure S3. In vitro association of AtPNP-A and CAT2 recombinant proteins.
(a) Recombinant protein preparations used in SPR analyses. […]

[3] = system: leaf discs of WT plants; test: Oxidative burst (ROS) in leaf discs; parameters: species or system Arabidopsis thaliana; conditions: leaf discs pre-treated with 100 nM rAtPNP-A for 30 min, then 1 μM flg22, luminol luminescence, 1 h, n = 11–12, P < 0.01
Method: Leaf discs (0.196 cm[2]) of 4-week-old WT plants were incubated overnight floating on 0.1 mL water in 96-well titer plate, with one disc per well. The following day the leaf discs were pre-treated with 100 nM rAtPNP-A or mock for 30 min. For ROS detection horseradish peroxidase and luminol (Sigma-Aldrich) were added to a final concentration of 10 μg mL^−1 and 100 μM, respectively. Luminescence was measured directly after addition of either 1 μM of flg22 or 100 nM rAtPNP-A in a MicroLumat LB96P plate reader (Berthold Technologies) for 1 h and is shown in relative light units.
Supplementary Figure S2. AtPNP-A participates in plant immunity.
Kinetics of ROS production after treatment of leaf discs with 1 μM flg22 with or without pre-treatment with 100 nM recombinant AtPNP-A (rAtPNP-A), or after treatment with rAtPNP-A only. Data are shown as mean ± SEM (two-way repeated measure ANOVA followed by Tukey’s multiple comparison test, n = 11 – 12, * P < 0.01). Total production of ROS during 60 min after treatment with rAtPNP-A, flg22, or flg22 and rAtPNP-A pre-treatment is shown as median ± SD (one-way ANOVA and Tukey-Kramer multiple comparison test, n = 11 – 12, P < 0.01) with statistically significant differences indicated by different letters.
(1 picture or pasted object on this page, not shown here)

[4] = system: stomata; conditions: cited from earlier work
Source text: A PNP_CAT interaction in plant responses to infecting pathogens is not surprising. CATs commonly function to down-regulate ROS during ABA-induced stomatal closure, and ABA-induced stomatal closure can be inhibited by removal of H2O2 via CAT2[73],[74]. […] Therefore, it is tempting to speculate that AtPNP-A modulates the effect of ABA on stomatal aperture through the interaction w ...

[5] = system: cGMP; conditions: cited from earlier work
Source text: Similarly, identification of novel receptors targeted by an increasing number of peptidic plant hormones discovered in the last few decades[8],[9] is anticipated. One of those, the plant natriuretic peptides (PNPs), are a group of systemically mobile signals[10] that have a role in the maintenance of salt and water balance[11],[12]. An A. thaliana PNP, termed AtPNP-A (At2g18660; Q9ZV52), has been implicated in several physiological processes ranging from the regulation of stomatal aperture, osmoticum-dependent volume changes[13],[14] and modulation of developmental stage- and tissue-specif ... || A PNP_CAT interaction in plant responses to infecting pathogens is not surprising. CATs commonly function to down-regulate ROS during ABA-induced stomatal closure, and ABA-induced stomatal closure can be inhibited by removal of H2O2 via CAT2[73],[74]. […] Therefore, it is tempting to speculate that AtPNP-A modulates the effect of ABA on stomatal aperture through the interaction w ...

Compound	CAT2 activity in WT plants (zymogram) [1]	SPR binding of recombinant AtPNP-A to CAT2 [2]	Effect on flg22-induced oxidative burst [3]	Effect on flg22-induced oxidative burst ([3]; listed as AtPNP)	Effect on flg22-induced oxidative burst ([3]; listed as PNP)	Effect on ABA-induced stomatal closure [4]	Elevation of cGMP [5]
CC(C)C[C@@H]1NC(=O)[C@H](CC(N)=O)NC(=O)[C@H](CC(N)=O)NC(=O)[C@H](CCCCN)NC(=O)[C@H](C(C)C)NC(=O)CNC(=O)[C@H](C(C)C)NC(=O)[C@H](C(C)C)NC(=O)[C@H](CC(C)C)NC(=O)[C@H]([C@@H](C)O)NC(=O)[C@H](CCC(=O)O)NC(=O)[C@H](CCCNC(=N)N)NC(=O)[C@H](CCC(N)=O)NC(=O)[C@H]([C@@H](C)O)NC(=O)CNC(=O)[C@H](Cc2ccc(O)cc2)NC(=O)[C@@H](NC(=O)[C@H](C)NC(=O)[C@H](CO)NC(=O)[C@H](CCCNC(=N)N)NC(=O)[C@@H](NC(=O)[C@H](Cc2ccc(O)cc2)NC(=O)[C@@H]2CCCN2)[C@@H](C)O)CSSC[C@@H](C(=O)NCC(=O)N[C@@H](CCCNC(=N)N)C(=O)N[C@@H](CCCNC(=N)N)C(=O)N[C@@H](Cc2ccc(O)cc2)C(=O)N[C@@H](CCCNC(=N)N)C(=O)N[C@H](C(=O)N[C@@H](CCCNC(=N)N)C(=O)N[C@@H](CCCCNC(=O)CCCC[C@@H]2SC[C@@H]3NC(=O)N[C@@H]32)C(=O)O)C(C)C)NC(=O)[C@H](C)NC(=O)[C@H](CCCNC(=N)N)NC(=O)CNC(=O)[C@H](CC(N)=O)NC(=O)[C@H](CCC(N)=O)NC(=O)[C@H](Cc2c[nH]c3ccccc23)NC1=O [pAtPNP-A] (H-PYTRSACYGTQRETLVVGVKNNLWQNGRACGRRYRVRK(Biotin)-OH; disulfide 7-30; N-terminus and C-terminus assumed)	increased CAT2 activity in WT plants compared to the mutants						
AtPNP-A: An A. thaliana PNP, termed AtPNP-A (At2g18660; Q9ZV52)		specific AtPNP-A and CAT2 interaction in vitro	enhanced flg22-induced oxidative burst	enhances responses to flg22	enhances oxidative burst	significantly delay and reduce the extent of ABA-induced stomatal closure	rapid elevation of 3′,5′-cyclic guanosine monophosphate (cGMP)
